These results are taken from US20230310445A1, “LOX ENZYME INHIBITING METHODS AND COMPOSITIONS” (ANOVIA BIOSCIENCES, INC., priority 2020, published 2023).

As usually defined, the efflux ratio is a quotient of directional permeabilities that is used to spot active efflux. What is called Papp A→B is the apparent permeability from the apical to the basolateral side of a cell layer. Higher therefore signals ready permeation. The Papp B→A is how fast a substance crosses the layer from the basolateral side. Broadly, the half-life is how long it takes for the measured level to halve. The low end stands for rapid decline, the high end for slow decline. Broadly, the microsomal CLint is the capacity of the preparation to metabolise the compound, expressed as a volume cleared per time. Low readings indicate greater metabolic stability, high ones faster metabolism. A word on the CLint scaled: it is a measure of how fast metabolising enzymes remove a compound, apart from limits set by blood flow.

Series [1] addresses T1, Recombinant human LOXL2 (lysyl oxidase like 2) (Homo sapiens, UniProt Q9Y4K0).
T1 construct: purchased R&D systems
T1 sequence (Q9Y4K0 26-774): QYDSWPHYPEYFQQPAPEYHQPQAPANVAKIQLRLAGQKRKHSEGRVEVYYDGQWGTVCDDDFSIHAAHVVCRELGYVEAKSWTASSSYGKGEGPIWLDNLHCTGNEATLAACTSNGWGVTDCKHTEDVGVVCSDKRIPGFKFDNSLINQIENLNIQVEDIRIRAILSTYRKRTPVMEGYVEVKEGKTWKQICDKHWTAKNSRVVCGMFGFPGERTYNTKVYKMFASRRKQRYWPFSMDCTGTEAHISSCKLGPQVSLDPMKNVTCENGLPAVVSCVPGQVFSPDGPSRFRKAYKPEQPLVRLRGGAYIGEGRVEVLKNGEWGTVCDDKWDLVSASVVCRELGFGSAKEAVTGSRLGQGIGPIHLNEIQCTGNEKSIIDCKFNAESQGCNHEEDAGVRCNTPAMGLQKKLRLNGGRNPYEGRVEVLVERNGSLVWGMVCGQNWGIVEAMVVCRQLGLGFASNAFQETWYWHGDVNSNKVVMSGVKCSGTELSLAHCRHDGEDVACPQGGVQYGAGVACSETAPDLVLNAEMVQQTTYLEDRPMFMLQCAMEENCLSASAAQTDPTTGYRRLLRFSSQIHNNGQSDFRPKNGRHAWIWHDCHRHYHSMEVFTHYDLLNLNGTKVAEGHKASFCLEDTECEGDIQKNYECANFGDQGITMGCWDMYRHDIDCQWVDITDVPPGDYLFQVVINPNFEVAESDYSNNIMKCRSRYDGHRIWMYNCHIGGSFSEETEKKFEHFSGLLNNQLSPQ
The experiment in a line: LOXL2 inhibition assay (fluorometric, cadaverine/Amplex Red/HRP). It is filed as biochemical. The conditions noted are these: IC50 class; recombinant human LOXL2, cadaverine substrate; read-out: Activity Range LOXL2. Summed up: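 Both enzymes assayed in 1.2 M urea, 50 mM sodium borate pH 8.0, 10 mM CaCl, with 30 min compound–enzyme preincubation at 37° C before cadaverine/Amplex Red/HRP addition. Fluorescence followed 60 min at 37° C; linear-slope rates, background-subtracted, as % of DMSO control, fitted by 4-parameter variable-slope curve (bottom fixed at 0).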

Series [2] in a line: Permeability study in Caco-2 cell line. The series is classed as in vitro ADME. The conditions noted are these: human. The protocol:
Caco-2 cell suspensions were dispensed into the inserts of the 96-well HTS Transwell plate and cultivated for 14-18 days. Transepithelial electrical resistance (TEER) across the monolayer was measured using Millicell Epithelial Volt-Ohm measuring system. The Caco-2 plate was then washed twice with pre-warmed HBSS (pH 7.4) and incubated at 37° C. for 30 minutes. To determine the rate of drug transport in the apical to basolateral direction. 5 μM test compound was added to the Transwell insert and the wells in the receiver plate were filled with HBSS (pH 7.4). To determine the rate of drug transport in the basolateral to apical direction, 5 μM test compound was added to the receiver plate wells and then the Transwell inserts were filled with HBSS (pH 7.4). The plates were incubated at 37° C. for 2 hours. 50 μL samples from donor sides and receiver sides were transferred to wells of a new 96-well plate followed by the addition of 4 volume of cold methanol containing internal standards (IS). Samples were centrifuged and the supernatant was used for LC-MS/MS analysis. After the incubation, residue solutions were removed from the Transwell plates, and Lucifer yellow (100 μM) solution was added to each Transwell insert, followed by filling the receiver wells with HBSS. The plates were incubated at 37° C. for 30 minutes. 80 μL samples were removed from the apical and basolateral wells and the fluorescence of Lucifer yellow was measured in a microplate reader with 485 nm excitation and 530 nm emission.

A short description of series [3]: Microsome stability study. It is filed as in vitro ADME, mouse. The following applies: for half-life at 2 μM / microsomal CLint at 2 μM / CLint scaled at 2 μM: CD-1, pH 7.4; for half-life at 2 μM / microsomal CLint at 2 μM: male mouse liver microsomes 0.5 mg/mL, NADPH; for CLint scaled at 2 μM: male, read-out: Scaled-up CLint; for CLint scaled at 2 μM / Predicted hepatic CL: mouse liver microsomes. How it is done: Pooled CD-1 mouse liver microsomes at 0.5 mg/mL were pre-incubated in phosphate buffer (100 mM, pH 7.4) containing 1 mM NADPH and 3 mM MgCl2 in a 96-well plate for 5 minutes at 37° C. Ultra-pure water was added instead of NADPH in the negative control group to exclude the misleading factor that resulted from instability of chemical itself. The reaction was initiated by adding test compound at the final concentration of 2 μM and incubated at 37° C. Aliquots were taken from the incubation at 0, 15, 30, 45 and 60 minutes followed by the addition of 4 volume of cold acetonitrile containing internal standards. Samples were centrifuged and supernatant was used for LC-MS/MS analysis.

SMILES strings stand for the structures. Like-named read-outs stand apart in the source and are kept apart here. A value given as a limit tells only on which side of the number the result lay.

With `CN(C)C(=O)N1C[C@@H](c2ccccc2)C[C@@H](S(=O)(=O)c2cccc(CN)c2)C1.O=C(O)C(F)(F)F` (racemic) [Example 74, cis-3-((3-(Aminomethyl)phenyl)sulfonyl)-N,N-dimethyl-5-phenylpiperidine-1-carboxamide 2,2,2-trifluoroacetate], in series [1], the IC50 is at most 0.5 µM. Also, the efflux ratio at 2 h, 5 μM in series [2] (Caco-2, pH 7.4) worked out at 47.1. The recovery at 2 h, 5 μM in series [2] (Caco-2, pH 7.4, Caco-2, apical to basolateral, read-out: Recovery (%)AP-BL) is 77.4%. Also, the recovery at 2 h, 5 μM in series [2] (Caco-2, pH 7.4, Caco-2, basolateral to apical, read-out: Recovery (%)BL-AP) stood at 90.8%. Further, the Papp A→B at 2 h, 5 μM in series [2] (Caco-2, apical to basolateral, 5 μM, 2 hours, pH 7.4) worked out at 7.1 nm/s. The same molecule had a Papp B→A at 2 h, 5 μM in series [2] (Caco-2, basolateral to apical, 5 μM, 2 hours, pH 7.4) of 333 nm/s. In addition, in series [3], the half-life at 2 μM was 113 min, the microsomal CLint at 2 μM was 12.2 µL/min/mg, the CLint scaled at 2 μM amounted to 3.21 L/h/kg and the “Predicted hepatic CL” value was 2.015 L/h/kg.
Regarding `NCc1ccnc(S(=O)(=O)N2C[C@@H](C(=O)N3CCOCC3)C[C@@H](c3ccccc3)C2)c1` [Example 133A, ((3S,5S)-1-((4-(aminomethyl)pyridin-2-yl)sulfonyl)-5-phenylpiperidin-3-yl)(morpholino)methanone 2,2,2-trifluoroacetate], the IC50 in series [1] is at most 0.5 µM.
The same measure, in the same setting: as for `NCc1ccnc(S(=O)(=O)N2C[C@@H](C(=O)N3CCOCC3)C[C@@H](c3ccccc3)C2)c1` (relative stereo) [Example 133, cis-(1-((4-(Aminomethyl)pyridin-2-yl)sulfonyl)-5-phenylpiperidin-3-yl)(morpholino)methanone 2,2,2-trifluoroacetate], the figure is at most 0.5 µM; as for `CN(C)C(=O)[C@H]1C[C@@H](C2CCCCC2)CN(S(=O)(=O)c2cc(CN)ccn2)C1` (racemic) [Example 144, cis-1-((4-(Aminomethyl)pyridin-2-yl)sulfonyl)-5-cyclohexyl-N,N-dimethylpiperidine-3-carboxamide 2,2,2-trifluoroacetate], at most 0.5 µM.
Take `CS(=O)(=O)[C@@H]1C[C@@H](S(=O)(=O)c2cccc(CN)c2)CN(c2ccccc2)C1` (racemic) [Example 79, trans-(3-((-5-(Methylsulfonyl)-1-phenylpiperidin-3-yl)sulfonyl)phenyl)methanamine]: in series [1], the IC50 was at most 0.5 µM.
In the case of `NCc1cccc(S(=O)(=O)N2C[C@@H](C(=O)N3CCOCC3)C[C@@H](C3CCCCC3)C2)c1` (racemic) [Example 139, cis-(1-((3-(Aminomethyl)phenyl)sulfonyl)-5-cyclohexylpiperidin-3-yl)(morpholino)methanone], the IC50 in series [1] lay within 0.5 to 1 µM.
Same read-out and setting: as for `NCc1cccc(S(=O)(=O)N2C[C@H](C(=O)N3CCS(=O)(=O)CC3)C[C@@H](c3ccccc3)C2)n1` (racemic) [Example 115T, trans-(1-((6-(Aminomethyl)pyridin-2-yl)sulfonyl)-5-phenylpiperidin-3-yl)(1,1-dioxidothiomorpholino)methanone 2,2,2-trifluoroacetate], the figure is 1 to 30 µM.
For `NCc1ccc(S(=O)(=O)N2C[C@@H](C(=O)N3CCOCC3)C[C@@H](C3CCCCC3)C2)s1.O=C(O)C(F)(F)F` (racemic) [Example 120, cis-(1-((5-(Aminomethyl)thiophen-2-yl)sulfonyl)-5-cyclohexylpiperidin-3-yl)(morpholino)methanone 2,2,2-trifluoroacetate], the IC50 in series [1] is at most 0.5 µM. Further, in series [3], the half-life at 2 μM stood at 37 min, the microsomal CLint at 2 μM is 37.4 µL/min/mg, the CLint scaled at 2 μM came to 9.82 L/h/kg and the “Predicted hepatic CL” value is 3.484 L/h/kg.
On to `NCc1ccnc(S(=O)(=O)N2C[C@@H](C(=O)N3CCS(=O)(=O)CC3)C[C@@H](c3ccccc3)C2)c1` (racemic) [Example 134, cis-(1-((4-(Aminomethyl)pyridin-2-yl)sulfonyl)-5-phenylpiperidin-3-yl)(1,1-dioxidothiomorpholino)methanone 2,2,2-trifluoroacetate], for which the IC50 in series [1] was at most 0.5 µM.
In the case of `NCc1cccc(S(=O)(=O)N2C[C@@H](C(=O)N3CCS(=O)(=O)CC3)C[C@@H](C3CCCCC3)C2)c1` (racemic) [Example 140, cis-(1-((3-(Aminomethyl)phenyl)sulfonyl)-5-cyclohexylpiperidin-3-yl)(1,1-dioxidothiomorpholino)methanone], the IC50 in series [1] lay in the range of 0.5 to 1 µM.
With `CN(C)C(=O)[C@H]1C[C@@H](C2CCCCC2)CN(S(=O)(=O)c2cccc(CN)c2)C1` (relative stereo) [Example 138, cis-1-((3-(Aminomethyl)phenyl)sulfonyl)-5-cyclohexyl-N,N-dimethylpiperidine-3-carboxamide 2,2,2-trifluoroacetate], the IC50 in series [1] is at most 0.5 µM.
With `NCc1ccnc(S(=O)(=O)N2C[C@@H](C(=O)N3CCS(=O)(=O)CC3)C[C@@H](C3CCCCC3)C2)c1.O=C(O)C(F)(F)F` (racemic) [Example 146, cis-(1-((4-(Aminomethyl)pyridin-2-yl)sulfonyl)-5-cyclohexylpiperidin-3-yl)(1,1-dioxidothiomorpholino)methanone 2,2,2-trifluoroacetate], in series [1], the IC50 was at most 0.5 µM. For the same molecule, in series [3], the half-life at 2 μM amounted to 32 min, the microsomal CLint at 2 μM amounted to 43.3 µL/min/mg, the CLint scaled at 2 μM amounted to 11.4 L/h/kg and the “Predicted hepatic CL” value is 3.662 L/h/kg.
For the molecule `CS(=O)(=O)[C@H]1C[C@@H](S(=O)(=O)c2cccc(CN)c2)CN(c2ccccc2F)C1` (racemic) [Example 92, cis-(3-((-1-(2-Fluorophenyl)-5-(methylsulfonyl)piperidin-3-yl)sulfonyl)phenyl)methanamine 2,2,2-trifluoroacetate], in series [1], the IC50 was at most 0.5 µM.
On the same count and under the same terms, as for `NCc1ccnc(S(=O)(=O)N2C[C@@H](C(=O)N3CCOCC3)C[C@@H](C3CCCCC3)C2)c1` (racemic) [Example 145, cis-(1-((4-(Aminomethyl)pyridin-2-yl)sulfonyl)-5-cyclohexylpiperidin-3-yl)(morpholino)methanone 2,2,2-trifluoroacetate], the figure is at most 0.5 µM; as for `CS(=O)(=O)N1C[C@H](Oc2cccc(CN)c2)C[C@H](c2ccccc2F)C1` (racemic) [Example 70, cis-(3-((5-(2-Fluorophenyl)-1-(methylsulfonyl)piperidin-3-yl)oxy)phenyl)methanamine 2,2,2-trifluoroacetate], at most 0.5 µM.
Consider `NCc1ccnc(S(=O)(=O)N2C[C@H](C(=O)N3CCOCC3)C[C@H](c3ccccc3)C2)c1` [Example 133B, ((3R,5R)-1-((4-(aminomethyl)pyridin-2-yl)sulfonyl)-5-phenylpiperidin-3-yl)(morpholino)methanone 2,2,2-trifluoroacetate], for which, in series [1], the IC50 is at most 0.5 µM.
The same measure, in the same setting: as for `NCc1cccc(S(=O)(=O)N2C[C@H](C(=O)N3CCS(=O)(=O)CC3)C[C@@H](c3ccccc3)C2)c1` (racemic) [Example 85, trans-(1-((3-(Aminomethyl)phenyl)sulfonyl)-5-phenylpiperidin-3-yl)(1,1-dioxidothiomorpholino)methanone 2,2,2-trifluoroacetate], the figure is at most 0.5 µM.
